Results as given in the supplement of paper PMC10307832.

Legend:
Assay in all cases: relative viability (nuclei count vs DMSO), 5 days (fraction); higher = more cells survive
Lestaurtinib + Alpelisib = compound: C[C@]12O[C@H](C[C@]1(O)CO)n1c3ccccc3c3c4c(c5c6ccccc6n2c5c31)CNC4=O [Lestaurtinib] + Cc1nc(NC(=O)N2CCC[C@H]2C(N)=O)sc1-c1ccnc(C(C)(C)C(F)(F)F)c1 [Alpelisib] (partner 2 µM)
Method in brief: (§1)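 Relative viability divides the nuclei count in treated wells by that in vehicle wells. Lung cancer cell lines were seeded in 1536-well plates, dosed by pin tool the next day, and fixed and stained after 5 days in one step with final 0.05% Triton X-100, 1% formaldehyde and 1 ug/ml Hoechst. Dosing was a single drug or a fixed anchor-drug dose plus five library-drug doses (not always all listed) in √10 steps, and values are medians of duplicate plates imaged at 4×.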

[1] = compound: C1/C(=C\C2=CC=CS2)/C(=O)/C(=C/C3=CC=CS3)/C1 + Cc1nc(NC(=O)N2CCC[C@H]2C(N)=O)sc1-c1ccnc(C(C)(C)C(F)(F)F)c1 [Alpelisib] (partner 2 µM)
Method in brief: as §1

TPCA-1 + Alpelisib = compound: C1=CC(=CC=C1C2=CC(=C(S2)NC(=O)N)C(=O)N)F [TPCA-1] + Cc1nc(NC(=O)N2CCC[C@H]2C(N)=O)sc1-c1ccnc(C(C)(C)C(F)(F)F)c1 [Alpelisib] (partner 2 µM)
Method in brief: as §1

TPCA-1 + Crizotinib = compound: C1=CC(=CC=C1C2=CC(=C(S2)NC(=O)N)C(=O)N)F [TPCA-1] + C[C@@H](Oc1cc(-c2cnn(C3CCNCC3)c2)cnc1N)c1c(Cl)ccc(F)c1Cl [Crizotinib] (partner 1 µM)
Method in brief: as §1

Cell Line | relative viability (Lestaurtinib + Alpelisib; first compound 0.005 µM) | relative viability (Lestaurtinib + Alpelisib; first compound 0.01581 µM) | relative viability (Lestaurtinib + Alpelisib; first compound 0.05 µM) | relative viability (Lestaurtinib + Alpelisib; first compound 0.1581 µM) | relative viability (Lestaurtinib + Alpelisib; first compound 0.5 µM) | relative viability ([1]; first compound 0.2 µM) | relative viability ([1]; first compound 0.6325 µM) | relative viability ([1]; first compound 2 µM) | relative viability ([1]; first compound 6.325 µM) | relative viability ([1]; first compound 20 µM) | relative viability (TPCA-1 + Alpelisib; first compound 0.04 µM) | relative viability (TPCA-1 + Alpelisib; first compound 0.1265 µM) | relative viability (TPCA-1 + Alpelisib; first compound 0.4 µM) | relative viability (TPCA-1 + Alpelisib; first compound 1.265 µM) | relative viability (TPCA-1 + Alpelisib; first compound 4 µM) | relative viability (TPCA-1 + Crizotinib; first compound 0.04 µM) | relative viability (TPCA-1 + Crizotinib; first compound 0.1265 µM) | relative viability (TPCA-1 + Crizotinib; first compound 0.4 µM) | relative viability (TPCA-1 + Crizotinib; first compound 1.265 µM) | relative viability (TPCA-1 + Crizotinib; first compound 4 µM)
NCI-H322M | 0.853 | 0.789 | 0.508 | 0.325 | 0.405 | 0.739 | 0.833 | 0.832 | 0.666 | 0.708 | 0.846 | 0.74 | 0.764 | 0.688 | 0.785 | 0.807 | 0.924 | 0.873 | 0.841 | 0.728
NCI-H358 | 0.656 | 0.601 | 0.343 | 0.266 | 0.202 | 1.11 | 0.799 | 0.861 | 0.668 | 0.88 | 1 | 0.65 | 0.911 | 0.55 | 0.364 | 0.759 | 0.559 | 0.541 | 0.39 | 0.264
NCI-H441 | 0.584 | 0.687 | 0.416 | 0.421 | 0.289 | 0.819 | 0.832 | 0.719 | 0.578 | 0.737 | 0.903 | 0.497 | 0.611 | 0.439 | 0.327 | 0.894 | 0.646 | 0.618 | 0.452 | 0.379
NCI-H460 | 0.477 | 0.406 | 0.222 | 0.198 | 0.0751 | 0.491 | 0.576 | 0.601 | – | 0.463 | 0.638 | 0.464 | 0.518 | 0.373 | 0.105 | 0.911 | 0.919 | 0.889 | 0.883 | 0.298
NCI-H520 | 1.05 | 0.993 | 0.764 | 0.481 | 0.274 | 0.927 | 0.847 | 0.928 | 0.82 | 0.835 | 0.869 | 0.783 | 0.844 | 0.892 | 0.788 | 0.882 | 0.737 | 0.795 | 0.566 | 0.544
NCI-H596 | 0.409 | 0.484 | 0.464 | 0.624 | 0.432 | 0.56 | 0.467 | 0.522 | 0.467 | 0.389 | 0.545 | 0.485 | 0.442 | 0.428 | 0.345 | 1.01 | 1.1 | 0.522 | 0.972 | 1.01
NCI-H647 | 0.972 | 0.87 | 0.267 | 0.231 | 0.14 | 1.14 | 1.32 | 1.08 | 1 | 1.13 | 1.35 | 1.04 | 1.23 | 0.834 | 0.562 | 1.24 | 1.08 | 1.13 | 0.882 | 0.215
NCI-H650 | 1.24 | 1.04 | 0.748 | 0.49 | 0.429 | 1.2 | 1.19 | 1.19 | 0.935 | 1.05 | 1.11 | 1.02 | 1.02 | 0.633 | 0.859 | 0.707 | 0.522 | 0.688 | 0.373 | 0.382
NCI-H661 | 0.618 | 0.953 | 0.495 | 0.477 | 0.406 | 0.611 | 0.792 | 0.838 | 0.515 | 0.7 | 1.01 | 0.2 | 0.768 | 0.546 | 0.487 | 0.968 | 0.889 | 1.05 | 0.988 | 0.825
NCI-H727 | 0.627 | 0.481 | 0.554 | 0.49 | 0.155 | 0.578 | 0.532 | 0.616 | 0.507 | 0.567 | 0.591 | 0.485 | 0.597 | 0.504 | 0.507 | 0.82 | 0.677 | 1.05 | 0.64 | 0.706
NCI-H838 | 1.06 | 1.05 | 0.9 | 0.576 | 0.183 | 1.03 | 0.986 | 0.939 | 0.848 | 0.974 | 0.981 | 0.882 | 0.957 | 0.857 | 0.716 | 0.837 | 0.752 | 0.806 | 0.698 | 0.471
NCI-H1299 | 1.14 | 1.05 | 0.559 | 0.614 | 0.713 | 1.04 | 1.08 | 1.03 | 0.948 | 1.04 | 1.11 | 1.09 | 1.05 | 1.04 | 1.1 | 0.95 | 0.943 | 0.907 | 0.972 | 0.948
NCI-H1355 | 0.849 | 0.885 | 0.682 | 0.392 | 0.303 | 0.794 | 0.722 | 0.758 | 0.72 | 0.804 | 0.802 | 0.567 | 0.871 | 0.761 | 0.555 | 1.1 | 1.03 | 1.11 | 0.977 | 0.712
NCI-H1437 | 0.958 | 1.11 | 1.01 | 0.757 | 0.461 | 0.985 | 0.923 | 0.988 | 0.639 | 0.901 | 0.959 | 0.869 | 1.04 | 0.85 | 0.755 | 0.941 | 0.892 | 0.892 | 0.872 | 0.834
NCI-H1563 | 0.88 | 0.954 | 0.944 | 0.865 | 0.813 | 0.933 | 0.912 | 0.881 | 0.93 | 1.02 | 0.976 | 0.932 | 0.897 | 0.993 | 0.911 | 0.945 | 0.954 | 0.89 | 0.953 | 0.811
NCI-H1651 | 1.1 | 0.889 | 0.913 | 0.845 | 0.529 | 1.11 | 0.899 | 1.03 | – | 0.975 | 1.03 | 0.82 | 0.988 | 1.09 | 0.863 | 0.853 | 0.841 | 0.892 | 0.812 | 0.747
